Test results taken from patent US11690810B2, “Combination treatment of bacterial infection” (The Chinese University of Hong Kong, priority 2018, dated 2023).
Values after ≈ are worked out from the molar mass of the structure shown. Read-outs that look alike come from different tables or passages of the source.

Columns and labels:
[1] = test system: S. aureus SA-RN4220-pUL5054 (RN4220); test: MIC and checkerboard (FIC) assay; details: for MIC90 / MIC99 / MIC: Staphylococcus aureus; for MIC99: read-out: MIC 99.9
[2] = test system: panel of laboratory MRSA strains; test: MIC and combination tests, panel of laboratory strains
[3] = test system: S. aureus SA-1199B (NorA efflux pump overexpressed); test: MIC and checkerboard (FIC) assay; details: for MIC99: read-out: MIC 99.9
[4] = test system: S. aureus SA-ANT4′ (ANT4), resistant to fusidic acid; test: MIC and checkerboard (FIC) assay; details: for MIC99: read-out: MIC 99.9
MRSA SA-ST239 = test: MIC and checkerboard (FIC) assay; details: for MIC99: read-out: MIC 99.9
[5] = test system: S. aureus ATCC25923 (methicillin sensitive); test: MIC and checkerboard (FIC) assay; details: Staphylococcus aureus; for MIC90: ATCC25923; for MIC99: ATCC25923, read-out: MIC 99.9
[6] = test system: S. aureus SA-APH3′ (APH3), resistant to kanamycin; test: MIC and checkerboard (FIC) assay; details: for MIC99: read-out: MIC 99.9
Solubility = details: MIC test medium
[7] = test system: S. aureus SA-APH2″-AAC6′ (APH2), resistant to gentamicin; test: MIC and checkerboard (FIC) assay; details: for MIC99: read-out: MIC 99.9
[8] = test system: cytokines production of human PBMC stimulated with PGN or SEB; type: cell-based
[9] = test system: adherence of MRSA strain JE-2 to fibrinogen; test: Fibrinogen-binding adherence assay (crystal violet); type: cell-based, Staphylococcus aureus; details: kuraridin at 1.0 μg/ml
panel of MRSA strains = details: previous study (12); cited from earlier work
[10] = test system: Human Mammary Epithelial Cell (HMEC); test: XTT cytotoxicity testing; type: cell-based; details: 2-64 μg/ml, vs drug free control
Protocol: (§1) The plates were maintained in a 37° C. incubator.

[11] = test system: human peripheral blood mononuclear cells (PBMC); test: XTT cytotoxicity testing; type: cell-based; details: 2-64 μg/ml, vs drug free control
Protocol: as §1
The cytotoxicity of kuraridin and its analogues were determined by the sodium 3′-[1-(phenylaminocarbonyl)-3,4-tetrazolium]-bis (4-methoxy-6-nitro) benzene sulfonic acid hydrate (XTT) assay.
Serial dilutions of the compounds ranging 2-64 μg/ml were incubated with PBMCs at 37° C. for 72 hrs.

[12] = test system: clinical community-associated (CA) and hospital-associated (HA) MRSA strains; test: MIC and combination tests, panel of clinical strains
[13] = test system: cytokines production of human macrophages stimulated with PGN or SEB; type: cell-based
[14] = test system: Panton-Valentine leukocidin positive CA-MRSA strain ST30; type: in vivo, Balb/c mice
[15] = test system: internalization of MRSA strain JE-2 by HaCat keratinocytes; test: Internalization of S. aureus by HaCaT keratinocytes; type: cell-based, Staphylococcus aureus
[16] = test system: Human Umbilical Vein Endothelial Cells (HUVEC); test: XTT cytotoxicity testing; details: 2-64 μg/ml, vs drug free control
[17] = test system: adherence of MRSA strain JE-2 to HaCat keratinocytes; test: Bacterial adherence to HaCaT keratinocytes; type: cell-based, Staphylococcus aureus
[18] = test system: bacterial aggregation of MRSA JE-2; test: Aggregation assay of MRSA JE-2; type: cell-based, Staphylococcus aureus; details: kuraridin at 4 μg/ml
clinical MRSA ST239 = test: Mouse pneumonia model, ST239 (neutropenic mice); type: in vivo, Balb/c mice
CA MRSA W46 = test: MIC and checkerboard (FIC) assay
CA MRSA W47 = test: MIC and checkerboard (FIC) assay
HA MRSA W233 = test: MIC and checkerboard (FIC) assay
HA MRSA W239 = test: MIC and checkerboard (FIC) assay
HA MRSA W232 = test: MIC and checkerboard (FIC) assay
CA MRSA W45 = test: MIC and checkerboard (FIC) assay
CA MRSA W48 = test: MIC and checkerboard (FIC) assay
HA MRSA W231 = test: MIC and checkerboard (FIC) assay
CA MRSA W44 = test: MIC and checkerboard (FIC) assay
HA MRSA W238 = test: MIC and checkerboard (FIC) assay
[19] = test system: methicillin sensitive Staphylococcus aureus ATCC25923; test: Mouse pneumonia model, ATCC25923 (neutropenic mice); type: in vivo, Balb/c mice
CA-MRSA strain ST30 = test: MIC and checkerboard (FIC) assay; type: cell-based, Staphylococcus aureus
[20] = Staphylococcus aureus, read-out: MIC alone
[21] = Staphylococcus aureus, MRSA, read-out: MIC alone

Cc1coc2c1C(=O)C(=O)c1c-2ccc2c(C)cccc12 [Tanshinone, tanshinone]
MIC90 [1]: > 128 µg/mL | MIC99 [1]: > 128 µg/mL | activity against the tested MRSA strains when used alone ([2]; tanshinone highest tested concentration 128 μg/ml): ineffective | MIC90 ([3]; Staphylococcus aureus): > 128 µg/mL | MIC99 ([3]; Staphylococcus aureus): > 128 µg/mL | MIC90 ([4]; Staphylococcus aureus): > 128 µg/mL | MIC99 ([4]; Staphylococcus aureus): > 128 µg/mL | MIC90 (MRSA SA-ST239; Staphylococcus aureus, MRSA): > 128 µg/mL | MIC99 (MRSA SA-ST239; Staphylococcus aureus, MRSA): > 128 µg/mL | MIC90 [5]: > 128 µg/mL | MIC99 [5]: > 128 µg/mL | MIC90 ([6]; Staphylococcus aureus): > 128 µg/mL | MIC99 ([6]; Staphylococcus aureus): > 128 µg/mL | solubility (Solubility): poor | MIC90 ([7]; Staphylococcus aureus): > 128 µg/mL | MIC99 ([7]; Staphylococcus aureus): > 128 µg/mL

C=C(C)C(CC=C(C)C)Cc1c(O)cc(OC)c(C(=O)/C=C/c2ccc(O)cc2O)c1O (stereo not shown) [Kuraridin]
FIC ([1]; RN4220, Kuraridin with ECG): 0.25 | MIC combine ([1]; RN4220, Kuraridin with ECG): 2 µg/mL | MIC90 [1]: 8 µg/mL | MIC ([1]; read-out: Activity (MIC, μg/ml)): 8 µg/mL | MIC99 [1]: 8 µg/mL | MIC ([1]; read-out: MIC alone): 8 µg/mL | IL-10 and IL-12 production [8]: dose-dependently inhibited | reduction in the adherence of the WT strain to fibrinogen [9]: 100% | minimum inhibitory concentration (MIC) (panel of MRSA strains): around 8 μg/ml | Cellular toxicity (XTT assay) [10]: not toxic | MIC99 ([2]; Staphylococcus aureus, MRSA): 8 to 16 µg/mL | MICs in kuraridin and ECG combined treatment ([2]; range over laboratory strains (Table 2)): 2 to 4 µg/mL | FIC ([3]; 1199B, Kuraridin with ECG): 0.25 | MIC combine ([3]; 1199B, Kuraridin with ECG): 4 µg/mL | MIC90 ([3]; Staphylococcus aureus): 16 µg/mL | MIC99 ([3]; Staphylococcus aureus): 16 µg/mL | MIC ([3]; Staphylococcus aureus, read-out: MIC alone, 1199B, Kuraridin and ECG section): 16 µg/mL | Cellular toxicity (XTT assay) [11]: not toxic | MICs in kuraridin and ECG combined treatment ([12]; range over clinical CA and HA MRSA strains (Table 3)): 1 to 4 µg/mL | IFN-γ productions [13]: could suppress | IL-6 and IL-12 production [13]: dose-dependently inhibited | TNF-α production [13]: suppressed | log CFU counts (left lung) ([14]; ST30, kuraridin 120 mg/kg, ECG 120 mg/kg, 48 h, control 9.24±0.15): 8.25±0.39 log CFU | survival rates ([14]; ST30, kuraridin 120 mg/kg, ECG 120 mg/kg, control 30%): 50% | log CFU counts and survival rates ([14]; ST30, used alone at 60 and 120 mg/kg): could not reduce the log CFU counts or improve the survival rates | percentage of internalized bacteria by HaCaT cells ([15]; kuraridin 0.25 μg/ml): 23.8±4.6% | percentage of internalized bacteria by HaCaT cells ([15]; kuraridin 0.5 μg/ml): 15.8±2.0% | FIC ([4]; ANT4, Kuraridin with ECG): 0.25 | MIC combine ([4]; ANT4, Kuraridin with ECG): 2 µg/mL | MIC90 ([4]; Staphylococcus aureus): 4 µg/mL | MIC99 ([4]; Staphylococcus aureus): 8 µg/mL | MIC [4, 20]: 8 µg/mL | MIC90 (MRSA SA-ST239; Staphylococcus aureus, MRSA): 8 µg/mL | MIC99 (MRSA SA-ST239; Staphylococcus aureus, MRSA): 8 µg/mL | Cellular toxicity (XTT assay) [16]: not toxic | MIC90 [5]: 8 µg/mL | MIC99 [5]: 8 µg/mL | adherence of WT strain to HaCaT cells ([17]; 2 μg/ml kuraridin (0.25×MIC)): abolished | percentage of adherence of the bacteria ([17]; kuraridin 0.25 μg/ml): 28.4±3.2% | percentage of adherence of the bacteria ([17]; kuraridin 0.5 μg/ml): 17.8±11.1% | percentage of adherence of the bacteria ([17]; kuraridin 1 μg/ml): 7.6±3.7% | FIC ([6]; APH3, Kuraridin with ECG): 0.25 | MIC combine ([6]; APH3, Kuraridin with ECG): 2 µg/mL | MIC90 ([6]; Staphylococcus aureus): 8 µg/mL | MIC99 ([6]; Staphylococcus aureus): 8 µg/mL | MIC [6, 20]: 8 µg/mL | aggregation lower than the mutant ΔSrtA [18]: 3.7 folds | reduction in bacterial aggregation as compared to the wild type without drug [18]: 4.4 fold | solubility (physchem; aqueous with cosolvent or surfactant or cyclodextrin): 20 mg/mL (≈ 45.6 mM) | FIC ([7]; APH2, Kuraridin with ECG): 0.25 | MIC combine ([7]; APH2, Kuraridin with ECG): 2 µg/mL | MIC90 ([7]; Staphylococcus aureus): 8 µg/mL | MIC99 ([7]; Staphylococcus aureus): 8 µg/mL | MIC [7, 20]: 8 µg/mL | mice died (clinical MRSA ST239; ST239, 48 h, 1 also died in control): 1 mouse

CN[C@H](CC(C)C)C(=O)N[C@H]1C(=O)N[C@@H](CC(N)=O)C(=O)N[C@H]2C(=O)N[C@H]3C(=O)N[C@H](C(=O)N[C@H](C(=O)O)c4cc(O)cc(O)c4-c4cc3ccc4O)[C@H](O)c3ccc(c(Cl)c3)Oc3cc2cc(c3O[C@@H]2O[C@H](CO)[C@@H](O)[C@H](O)[C@H]2O[C@H]2C[C@](C)(N)[C@H](O)[C@H](C)O2)Oc2ccc(cc2Cl)[C@H]1O [Vancomycin, vancomycin, reference compound]
MIC (CA MRSA W46; [21]): 1 µg/mL | FIC (CA MRSA W46; W46, ECG+Kur+Van): 0.5 | MIC combine (CA MRSA W46; W46, ECG+Kur+Van): 0.5 µg/mL | MIC (CA MRSA W47; [21]): 1 µg/mL | FIC (CA MRSA W47; W47, ECG+Kur+Van): 0.25 | MIC combine (CA MRSA W47; W47, ECG+Kur+Van): 0.25 µg/mL | MIC (HA MRSA W233; [21]): 1 µg/mL | FIC (HA MRSA W233; W233, ECG+Kur+Van): 0.5 | MIC combine (HA MRSA W233; W233, ECG+Kur+Van): 0.5 µg/mL | MIC (HA MRSA W239; [21]): 1 µg/mL | FIC (HA MRSA W239; W239, ECG+Kur+Van): 0.5 | MIC combine (HA MRSA W239; W239, ECG+Kur+Van): 0.5 µg/mL | MIC ([12]; Staphylococcus aureus, MRSA, read-out: MIC of vancomycin alone): 1 µg/mL | MIC of vancomycin with ECG and kuraridin combined treatment ([12]; panel of clinical strains (Table 5)): 0.5 µg/mL | MIC (HA MRSA W232; [21]): 1 µg/mL | FIC (HA MRSA W232; W232, ECG+Kur+Van): 0.5 | MIC combine (HA MRSA W232; W232, ECG+Kur+Van): 0.5 µg/mL | expression levels of TNFα, IL-1β, and IL-6 from lung homogenates ([14]; mouse, in vivo): significantly lowered | lung tissue profiles (histology) vs control ([14]; mouse, in vivo): fewer lesions | survival rate ([14]; mouse, in vivo): 100% | MIC (CA MRSA W45; [21]): 1 µg/mL | FIC (CA MRSA W45; W45, ECG+Kur+Van): 0.5 | MIC combine (CA MRSA W45; W45, ECG+Kur+Van): 0.5 µg/mL | FIC (MRSA SA-ST239; ST239, ECG+Kur+Van): 0.5 | MIC combine (MRSA SA-ST239; ST239, ECG+Kur+Van): 0.5 µg/mL | MIC (MRSA SA-ST239; [21]): 1 µg/mL | MIC (CA MRSA W48; [21]): 1 µg/mL | FIC (CA MRSA W48; W48, ECG+Kur+Van): 0.5 | MIC combine (CA MRSA W48; W48, ECG+Kur+Van): 0.5 µg/mL | solubility (physchem; saline or isotonic): 20 mg/mL (≈ 13.8 mM) | MIC (HA MRSA W231; [21]): 1 µg/mL | MIC combine (HA MRSA W231; W231, ECG+Kur+Van): 0.5 µg/mL | MIC (CA MRSA W44; [21]): 1 µg/mL | FIC (CA MRSA W44; W44, ECG+Kur+Van): 0.5 | MIC combine (CA MRSA W44; W44, ECG+Kur+Van): 0.5 µg/mL | MIC (HA MRSA W238; [21]): 1 µg/mL | FIC (HA MRSA W238; W238, ECG+Kur+Van): 0.5 | MIC combine (HA MRSA W238; W238, ECG+Kur+Van): 0.5 µg/mL | lung tissue profiles (histology) vs control [19]: fewer lesions | mean bacteria counts (left lung) ([19]; vancomycin 60 mg/kg, ECG 120 mg/kg, kuraridin 120 mg/kg, 48 h, control 8.909±0.101): 6.064±0.425 log CFU | mean bacteria counts (left lung) (clinical MRSA ST239; mouse, in vivo): 4.73±0.26 log CFU | FIC (CA-MRSA strain ST30; ST30, ECG+Kur+Van): 0.5 | MIC combine (CA-MRSA strain ST30; ST30, ECG+Kur+Van): 0.5 µg/mL | MIC (CA-MRSA strain ST30; [21]): 1 µg/mL
